One molecule from paper PMC8227885 (Viruses, 2021) can be followed below.

This assay addresses SARS-CoV-2 RBD:ACE2 (UniProt P0DTC2+Q9BYF1). The assay is described as follows: biochemical. Also on record: species or system SARS-CoV-2 (RBD); human (ACE2).

Chain of SARS-CoV-2 RBD:ACE2 (Q9BYF1 18-615, one chain of several): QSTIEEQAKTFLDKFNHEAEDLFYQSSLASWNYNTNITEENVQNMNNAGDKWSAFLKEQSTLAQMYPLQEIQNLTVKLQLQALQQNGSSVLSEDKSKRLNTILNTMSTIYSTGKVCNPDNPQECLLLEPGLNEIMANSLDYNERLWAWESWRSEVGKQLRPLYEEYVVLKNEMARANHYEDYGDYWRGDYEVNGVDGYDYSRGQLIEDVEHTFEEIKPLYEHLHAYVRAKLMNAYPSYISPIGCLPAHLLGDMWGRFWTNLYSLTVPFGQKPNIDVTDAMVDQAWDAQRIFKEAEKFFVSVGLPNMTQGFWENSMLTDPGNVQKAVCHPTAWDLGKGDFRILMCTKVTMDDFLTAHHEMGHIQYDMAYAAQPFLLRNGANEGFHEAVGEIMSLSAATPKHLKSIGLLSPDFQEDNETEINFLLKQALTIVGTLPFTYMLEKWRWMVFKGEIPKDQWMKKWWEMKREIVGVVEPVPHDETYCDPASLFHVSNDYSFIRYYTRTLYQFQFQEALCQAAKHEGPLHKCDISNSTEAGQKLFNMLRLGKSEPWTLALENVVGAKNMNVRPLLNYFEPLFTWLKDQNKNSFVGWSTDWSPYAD

Usually IC50 stands for the concentration needed to halve the response being measured. Higher therefore signals weaker potency in that assay. Consider `O=c1c(O)cc([C@H]2Oc3cc(O)cc(O)c3C[C@H]2O)cc2c([C@H]3Oc4cc(O)cc(O)c4C[C@H]3O)cc(O)c(O)c12` [Theaflavin], for which the IC50 amounted to 41.7 µM and the “effect on SRAE2-BS activity (suppression)” value is recorded as “significantly suppressed SRAE2-BS activity”.
